Test results reported in publication PMC8400955 (Pharmaceuticals, 2021).

Legend:
[1] = Single-dose PK and bioavailability in dogs; type: in vivo; conditions: beagle, dog, plasma; for bioavailability: PO 6 mg/kg/day vs IV 2 mg/kg/day; for AUC(0-t) / Cmax / Tmax: single dose
Protocol: […] […] All groups had one male and one female animal. Plasma samples were collected at various timepoints, through to 24 h post-dose, and analyzed for ZB716.
(§1) Four-to-six-week-old Sprague Dawley rats (Crl: CD (SD)) (SPF/VAF) were purchased from Beijing Vital River Laboratory Animal Technology, Co. Ltd.). Six-month-old beagle dogs were purchased from Beijing Marshall Biotechnology Co. Ltd. Animals were quarantined/acclimated for 2–6 weeks prior to dose initiation. Both Sprague Dawley rats and beagle dogs were given oral administration of ZB716 (20% PG, 5% Solutol, and 75% of 40% HP-β-CD in water) at different dose levels. After treatment with the test articles, whole blood was collected from each study animal by puncture of the tail vein (0.4 mL of whole blood from rats) and/or the peripheral vein (0.6 mL of whole blood from dogs) into tubes containing K2EDTA at each timepoint: pre-dose, and 0.5, 1, 2, 4, 8, and 24 h post-dose. The plasma samples were divided into 2 aliquots (approximately equal in volume) and stored frozen at −75 ± 15 °C within 2 h of the collection until analysis at Pharmaron, China.
(§2) The stock solution of ZB716 (5.0 mg/mL) and ZB716-d6 (1 mg/mL) in ACN:DI Water = 1:1 was prepared and stored at −20 ± 5 °C. The desired serial concentrations of working reference analyte solutions were achieved by diluting a stock analyte solution with 50% acetonitrile (0.1% formic acid) in water solution. The bioanalytical LC–MS/MS method was validated for quantitative determination of ZB716 in Sprague Dawley rat plasma and beagle dog plasma, with acceptable selectivity, sensitivity, calibration curve, precision, and accuracy. This method is applicable for the determination of ZB716 in Sprague Dawley rat plasma and beagle dog plasma, with a lower limit of quantification of 20.0 ng/mL, and an upper limit of quantification of 10,000 ng/mL.
(§3) Five microliters of diluted supernatant was injected into the LC–MS/MS system (Shimadzu LC30AD HPLC system with a SynergiTM 4 μm Fusion-RP 80 Å (50 × 2 mm) column using gradient elution and a Triple Quad 5500 mass spectrometer) for quantitative analysis. The mobile phases used were 0.1% formic acid in deionized water and 0.1% formic acid in acetonitrile. The pharmacokinetic parameters T1/2 (the biological half-life), Cmax (maximal concentration), Tmax (time at which Cmax is observed), and AUC (area under the plasma concentration–time curve) were calculated from the plasma concentration versus time data using WinNonlin (Phoenix^TM, version 8.1, Mountain View, CA, USA). All PK studies were conducted by Pharmaron in Beijing, China.

[2] = 7-day repeated-dose TK in dogs; type: in vivo; conditions: beagle, dog, plasma, po
Protocol: The TK of ZB716 was investigated following once-daily administration via oral gavage for 7 consecutive days. Beagle dogs (n = 1/sex) were orally administered ZB716 at dose levels of 100 and 200 mg/kg/day.
The TK of ZB716 was investigated following once-daily administration via oral gavage for 7 consecutive days. The Cmax and AUClast values of ZB716 increased with dose in a greater than dose-proportional manner. However, the exposure in the female given 100 mg/kg/day was higher than that in the female given 200 mg/kg/day on days 1 and 7 (Figure 3). During the study, females had higher exposure at 100 mg/kg/day, and males had higher exposure at 200 mg/kg/day.
as §1, §2, §3

CYP2C19 = CYP2C19 (Homo sapiens, UniProt P33261); experiment: CYP inhibition in human liver microsomes, CYP2C19; type: in vitro ADME; conditions: HLM, marker substrate Mephenytoin
Chain of CYP2C19 (P33261 whole entry): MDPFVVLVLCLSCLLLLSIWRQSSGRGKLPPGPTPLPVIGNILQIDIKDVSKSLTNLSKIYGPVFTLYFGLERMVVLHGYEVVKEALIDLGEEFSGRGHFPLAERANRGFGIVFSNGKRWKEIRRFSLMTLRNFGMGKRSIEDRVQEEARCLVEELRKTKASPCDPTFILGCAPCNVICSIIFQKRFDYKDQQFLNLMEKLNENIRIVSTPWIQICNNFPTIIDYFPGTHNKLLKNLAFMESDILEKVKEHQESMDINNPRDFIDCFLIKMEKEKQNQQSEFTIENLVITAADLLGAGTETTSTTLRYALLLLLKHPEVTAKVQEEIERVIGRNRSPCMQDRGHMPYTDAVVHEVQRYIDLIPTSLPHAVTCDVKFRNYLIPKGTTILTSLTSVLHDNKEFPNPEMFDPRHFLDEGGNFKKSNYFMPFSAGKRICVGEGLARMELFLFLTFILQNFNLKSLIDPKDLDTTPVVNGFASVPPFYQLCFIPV
Protocol: . The inhibition of CYP2B6 and 3A4 (when midazolam was used as the substrate) by ZB716 was not observed. The inhibitory potential of ZB716 on human CYP enzyme activities appears relatively low.
The final concentrations of ZB716 in the incubation system were 0, 0.05, 0.15, 0.5, 1.5, 5, and 15 µM (final organic solvent concentration ≤ 1%). […] . […] The concentrations of the isoform-specific metabolites derived from marker substrates were measured by UPLC–MS/MS. The IC50 values were calculated from the percentages of the rate of the metabolite formation relative to non-inhibited controls vs. the concentrations of ZB716 or positive control inhibitors. All incubations were performed in triplicate. The mean of the enzyme activity (% of non-inhibited control) for each concentration was plotted against the log inhibitor concentration, and fitted to an IC50 curve.

[3] = female, 100 mg/kg/day, day 1, PO 100 mg/kg/day, F
[4] = female, 100 mg/kg/day, day 7, PO 100 mg/kg/day, F
[5] = female, 200 mg/kg/day, day 1, PO 200 mg/kg/day, F
[6] = female, 200 mg/kg/day, day 7, PO 200 mg/kg/day, F
[7] = male, 100 mg/kg/day, day 1, PO 100 mg/kg/day, M
[8] = male, 100 mg/kg/day, day 7, PO 100 mg/kg/day, M
[9] = male, 200 mg/kg/day, day 1, PO 200 mg/kg/day, M
[10] = male, 200 mg/kg/day, day 7, PO 200 mg/kg/day, M

Work on `C[C@]12CC[C@@H]3c4ccc(B(O)O)cc4C[C@@H](CCCCCCCCC[S+]([O-])CCCC(F)(F)C(F)(F)F)[C@H]3[C@@H]1CC[C@@H]2O` (stereo partly shown) [ZB716, fulvestrant-3-boronic acid] yielded a bioavailability ([1]; female, F) of 6.74%, an AUC(0-t) ([1]; female, IV 2 mg/kg/day, F) of 4.31 µg·h/mL and a Cmax ([1]; female, IV 2 mg/kg/day, F) of 2.71 µg/mL. For the same molecule, the Tmax ([1]; female, IV 2 mg/kg/day, F) was 0.0833 h, the AUC(0-t) ([1]; female, PO 6 mg/kg/day, F) was 0.872 µg·h/mL and the Cmax ([1]; female, PO 6 mg/kg/day, F) was 0.213 µg/mL. For the same molecule, the Tmax ([1]; female, PO 6 mg/kg/day, F) was 0.5 h, the AUC(0-t) ([1]; female, PO 30 mg/kg/day, F) was 3.46 µg·h/mL and the Cmax ([1]; female, PO 30 mg/kg/day, F) was 0.964 µg/mL. It also gave a Tmax ([1]; female, PO 30 mg/kg/day, F) of 1 h, an AUC(0-t) ([1]; female, PO 100 mg/kg/day, F) of 5.84 µg·h/mL and a Cmax ([1]; female, PO 100 mg/kg/day, F) of 0.957 µg/mL. It also gave a Tmax ([1]; female, PO 100 mg/kg/day, F) of 0.5 h, a bioavailability ([1]; male, M) of 6.18% and an AUC(0-t) ([1]; male, IV 2 mg/kg/day, M) of 3.03 µg·h/mL. For the same molecule, the Cmax ([1]; male, IV 2 mg/kg/day, M) was 2.16 µg/mL, the Tmax ([1]; male, IV 2 mg/kg/day, M) was 0.0833 h and the AUC(0-t) ([1]; male, PO 6 mg/kg/day, M) was 0.563 µg·h/mL. The Cmax ([1]; male, PO 6 mg/kg/day, M) was 0.157 µg/mL, the Tmax ([1]; male, PO 6 mg/kg/day, M) was 0.5 h and the AUC(0-t) ([1]; male, PO 30 mg/kg/day, M) was 5.52 µg·h/mL. It also gave a Cmax ([1]; male, PO 30 mg/kg/day, M) of 0.988 µg/mL, a Tmax ([1]; male, PO 30 mg/kg/day, M) of 4 h and an AUC(0-t) ([1]; male, PO 100 mg/kg/day, M) of 7.5 µg·h/mL. The Cmax ([1]; male, PO 100 mg/kg/day, M) was 1.14 µg/mL, the Tmax ([1]; male, PO 100 mg/kg/day, M) was 2 h and the Tmax at 7 days ([2]; both sexes, 200 mg/kg/day, 7-day repeat oral administration, 100 and 200 mg/kg/day, mostly) was 0.5 to 2 h. For the same molecule, the AUC(0-t) [2, 3] was 55.6 µg·h/mL, the Cmax [2, 3] was 7.21 µg/mL and the Tmax [2, 3] was 2 h. For the same molecule, the AUC(0-t) [2, 4] was 81.1 µg·h/mL, the Cmax [2, 4] was 12.3 µg/mL and the Tmax [2, 4] was 4 h. It also gave an AUC(0-t) [2, 5] of 9.79 µg·h/mL, a Cmax [2, 5] of 1.74 µg/mL and a Tmax [2, 5] of 1 h. For the same molecule, the AUC(0-t) [2, 6] was 46.7 µg·h/mL, the Cmax [2, 6] was 8.42 µg/mL and the Tmax [2, 6] was 2 h. For the same molecule, the AUC(0-t) [2, 7] was 5.07 µg·h/mL, the Cmax [2, 7] was 1.35 µg/mL and the Tmax [2, 7] was 1 h. The AUC(0-t) [2, 8] was 17.8 µg·h/mL, the Cmax [2, 8] was 3.43 µg/mL and the Tmax [2, 8] was 1 h. For the same molecule, the AUC(0-t) [2, 9] was 52.2 µg·h/mL, the Cmax [2, 9] was 8.43 µg/mL and the Tmax [2, 9] was 2 h. For the same molecule, the AUC(0-t) [2, 10] was 103 µg·h/mL, the Cmax [2, 10] was 18.3 µg/mL and the Tmax [2, 10] was 2 h. For the same molecule, the IC50 (CYP2C19) was 2.2 µM.
